Test [1] has as its system GREM1. The following applies: monoclonal antibodies; cited from earlier work. The source says:
The advent of cancer genomics and precision medicine has enabled targeted therapies for advanced CRC, with agents against VEGF, EGFR, BRAF V600E, and HER2 showing efficacy in selected patient subsets. However, issues like limited bioavailability, resistance, and narrow indications restrict their broader use. Unlike mutation-specific targets, GREM1 is a widely expressed cytokine with sustained, context-dependent activity, making it a promising and potentially broadly applicable therapeutic target in CRC. Therapeutic targeting of GREM1 to date has focused largely on full neutralization str ...

For test [2], the target named is T1, GREM1 (Homo sapiens, UniProt O60565).
T1 construct: His; purchased R&D 5190-GR
T1 sequence (O60565 25-184): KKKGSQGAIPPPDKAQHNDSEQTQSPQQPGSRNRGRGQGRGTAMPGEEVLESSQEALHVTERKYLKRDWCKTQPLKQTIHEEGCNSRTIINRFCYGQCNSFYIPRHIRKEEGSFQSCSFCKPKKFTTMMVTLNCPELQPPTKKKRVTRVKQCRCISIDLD
Kind of test: MST binding of ACVR1C peptide to GREM1-His. The following applies: GREM1 for ACVR1C peptide versus ACVR1C-ECD. As for the experimental part:
MST was carried out on a Monolith NT.115 instrument (NanoTemper Technologies GmbH, MO-L011). To evaluate ACVR1C-ECD or ACVR1C peptide or ACVR1C-ECD-double mutant (E85A/T101A) binding to GREM1-His or ACTIVIN B-His, an increasing concentration of purified ACVR1C-ECD-Fc protein (0–27.5 µM) or ACVR1C peptide (0–2.3 µM) or ACVR1C-ECD-double mutant (0–27.5 µM) was incubated with 50 nM red-fluorescently labeled (NanoTemper Technologies GmbH, MO-L011) GREM1-His protein (R&D, 5190-GR) or ACTIVIN B-His protein (SinoBiological, 10814-H08H). Experiments were carried out in a PBS buffer pH 7.4 using premium capillaries (NanoTemper Technologies GmbH, MO-K025).

In test [3] the test system is GREM1–ACVR1C. Kind of test: Pull-down assay, blocking of GREM1–ACVR1C-ECD binding. Details: species or system human. The following applies: GREM1-His and ACVR1C-ECD-Fc, Coomassie Brilliant Blue. As for the experimental part:
Protein pull-down assay was performed using purified recombinant human His-tagged GREM1 protein and recombinant human ACVR1C-ECD and Fc chimera protein. Protein was enriched by Pierce Protein A magnetic beads (MCE, HY-K0202) or Ni Sepharose 6 Fast Flow (GE, 17531801) following the manufacturer’s instructions. Pulled-down proteins were detected by Coomassie Brilliant Blue staining.

In test [4] the test system is HCT116-luc cells. Nature of the test: Spleen-to-liver metastasis model, HCT116-luc (pLV-GREM1) in NOG mice. In kind it is in vivo, human cells in NOG mice. The following applies: HCT116-luc (pLV-GREM1) injected in the spleen, ACVR1C peptide 10 mg/kg i.v. (tail vein) every other day from 48 h after cell injection, IVIS, n = 5 mice per group. The procedure:
For spleen-to-liver metastasis model, 5 × 10^5 MC38-luc cells or MC38-luc (pLV-Grem1) cells were resuspended in 50 µL of PBS and injected into the spleen of GD mice or control mice (Grem1-CreER^T2/Rosa-LSL-DTA mice) (n = 5 mice in each group). 5 × 10^5 HCT116-luc cells carrying a pLV or pLV-GREM1 were resuspended in 50 µL of PBS and intrasplenically injected into NOG mice (n = 5 mice in each group). ACVR1C peptide was administered via tail vein injection at a dose of 10 mg/kg once every other day.

“Also recorded” adds a separate entry of the source. Peptide text beside a SMILES is read from it.

As for “Ginisortamab: fully humanized anti-GREM1 monoclonal antibody”, in test [1], the “efficacy in preclinical models” value is listed as “have shown efficacy in preclinical models”.
`CC[C@H](C)[C@H](NC(=O)[C@H](CC(N)=O)NC(=O)[C@H](CC(N)=O)NC(=O)[C@H](CS)NC(=O)[C@H](Cc1ccccc1)NC(=O)[C@H](CC(=O)O)NC(=O)[C@@H](NC(=O)[C@H](Cc1ccccc1)NC(=O)[C@H](CS)NC(=O)[C@H](CS)NC(=O)[C@H](CCC(=O)O)NC(=O)[C@@H](N)[C@@H](C)O)[C@@H](C)O)C(=O)N[C@H](C(=O)N[C@@H](CC(C)C)C(=O)N[C@@H](Cc1c[nH]cn1)C(=O)N[C@@H](CC(C)C)C(=O)N1CCC[C@H]1C(=O)N[C@H](C(=O)N[C@@H](C)C(=O)O)[C@@H](C)O)[C@@H](C)O` [ACVR1C peptide] (H-TECCFTDFCNNITLHLPTA-OH; N-terminus and C-terminus assumed): the “affinity compared with ACVR1C-ECD” value in test [2] was “comparable to that for the ACVR1C-ECD”. In test [3], the “blocking of GREM1–ACVR1C binding” value was “significantly blocked the GREM1–ACVR1C binding; also recorded: blocked the interaction between GREM1 and ACVR1C-ECD”. The liver metastasis entry in test [4] is reported as “effectively suppressed the increase in liver metastasis induced by tumor-specific GREM1 overexpression”; in test [4] (listed as GREM1-blocking peptide) it was “significantly impairs CRC metastasis in vivo”.

Values taken from publication PMC13371181, “A paracrine-to-autocrine shunt of GREM1 fuels colorectal cancer metastasis via ACVR1C” (Molecular Cancer, 2026).
